ChEMBL document CHEMBL4715724, “Novel 5-substituted-2-anilinoquinolines with 3-(morpholino or 4-methylpiperazin-1-yl)propoxy moiety as broad spectrum antiproliferative agents: Synthesis, cell based assays and kinase screening” (Bioorg Med Chem Lett, 2016)

Legend:
HT-29 = experiment: cells; assay type: functional; conditions: Homo sapiens, time 48 hrs
Description: Growth inhibition of human HT-29 cells incubated for 48 hrs by sulforhodamine B assay

[1] = biological target: MAP kinase-activated protein kinase 2 (Homo sapiens) (UniProt P49137); experiment: Inhibition of human MAPKAPK2 expressed in Escherichia coli at 10 uM relative to control
MAP kinase-activated protein kinase 2 (Homo sapiens), sequence (P49137 whole entry, looked up): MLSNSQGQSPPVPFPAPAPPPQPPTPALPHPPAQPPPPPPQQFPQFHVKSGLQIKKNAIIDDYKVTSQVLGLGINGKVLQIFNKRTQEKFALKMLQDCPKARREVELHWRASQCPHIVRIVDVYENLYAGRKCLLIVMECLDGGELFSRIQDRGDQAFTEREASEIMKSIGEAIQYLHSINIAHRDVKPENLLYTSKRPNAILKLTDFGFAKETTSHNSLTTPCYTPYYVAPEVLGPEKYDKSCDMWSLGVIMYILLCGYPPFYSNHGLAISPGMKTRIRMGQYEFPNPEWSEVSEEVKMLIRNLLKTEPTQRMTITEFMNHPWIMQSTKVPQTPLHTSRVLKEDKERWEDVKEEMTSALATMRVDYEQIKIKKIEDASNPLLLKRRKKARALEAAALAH

[2] = biological target: Ribosomal protein S6 kinase alpha-1 (Homo sapiens) (UniProt Q15418); experiment: Inhibition of recombinant full length N-terminal His6-tagged human RSK1 expressed in Sf21 insect cells at 10 uM relative to control
Ribosomal protein S6 kinase alpha-1 (Homo sapiens), sequence (Q15418 whole entry): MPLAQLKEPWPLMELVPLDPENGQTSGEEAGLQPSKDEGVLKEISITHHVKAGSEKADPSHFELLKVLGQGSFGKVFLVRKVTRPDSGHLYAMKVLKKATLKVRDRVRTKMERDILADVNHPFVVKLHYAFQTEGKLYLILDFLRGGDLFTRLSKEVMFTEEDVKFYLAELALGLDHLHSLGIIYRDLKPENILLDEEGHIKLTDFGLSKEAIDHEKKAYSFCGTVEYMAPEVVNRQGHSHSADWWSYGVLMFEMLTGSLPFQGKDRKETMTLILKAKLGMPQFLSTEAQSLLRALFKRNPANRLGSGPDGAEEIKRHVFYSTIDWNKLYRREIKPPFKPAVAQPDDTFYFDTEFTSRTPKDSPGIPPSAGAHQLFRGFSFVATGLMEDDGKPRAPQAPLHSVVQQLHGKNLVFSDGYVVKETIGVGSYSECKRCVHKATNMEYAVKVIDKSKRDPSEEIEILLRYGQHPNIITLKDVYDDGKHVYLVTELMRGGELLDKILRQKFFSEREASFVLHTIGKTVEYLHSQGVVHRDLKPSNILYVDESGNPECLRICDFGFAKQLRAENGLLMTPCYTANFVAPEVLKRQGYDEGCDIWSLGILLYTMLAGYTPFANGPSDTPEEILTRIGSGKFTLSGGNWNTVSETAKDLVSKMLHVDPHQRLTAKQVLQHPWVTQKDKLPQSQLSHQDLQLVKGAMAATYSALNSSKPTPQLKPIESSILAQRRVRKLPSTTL

MCF7 = experiment: cells; assay type: functional; conditions: Homo sapiens, time 48 hrs
Description: Growth inhibition of human MCF7 cells incubated for 48 hrs by sulforhodamine B assay

LOX IMVI [3] = experiment: cells; assay type: functional; conditions: Homo sapiens, time 48 hrs
Description: Growth inhibition of human LOX IMVI cells incubated for 48 hrs by sulforhodamine B assay

MDA-MB-231 = experiment: cells; assay type: functional; conditions: Homo sapiens, time 48 hrs
Description: Growth inhibition of human MDA-MB-231/ATCC cells incubated for 48 hrs by sulforhodamine B assay

CCRF-CEM = experiment: cells; assay type: functional; conditions: Homo sapiens, time 48 hrs
Description: Growth inhibition of human CCRF-CEM cells incubated for 48 hrs by sulforhodamine B assay

[4] = biological target: Platelet-derived growth factor receptor alpha (Homo sapiens) (UniProt P16234); experiment: Inhibition of recombinant N-terminal His6-tagged human PDGFRalpha (550 to end residues) expressed in baculovirus infected Sf21 insect cells at 10 uM relative to control
Platelet-derived growth factor receptor alpha (Homo sapiens), sequence (P16234 whole entry): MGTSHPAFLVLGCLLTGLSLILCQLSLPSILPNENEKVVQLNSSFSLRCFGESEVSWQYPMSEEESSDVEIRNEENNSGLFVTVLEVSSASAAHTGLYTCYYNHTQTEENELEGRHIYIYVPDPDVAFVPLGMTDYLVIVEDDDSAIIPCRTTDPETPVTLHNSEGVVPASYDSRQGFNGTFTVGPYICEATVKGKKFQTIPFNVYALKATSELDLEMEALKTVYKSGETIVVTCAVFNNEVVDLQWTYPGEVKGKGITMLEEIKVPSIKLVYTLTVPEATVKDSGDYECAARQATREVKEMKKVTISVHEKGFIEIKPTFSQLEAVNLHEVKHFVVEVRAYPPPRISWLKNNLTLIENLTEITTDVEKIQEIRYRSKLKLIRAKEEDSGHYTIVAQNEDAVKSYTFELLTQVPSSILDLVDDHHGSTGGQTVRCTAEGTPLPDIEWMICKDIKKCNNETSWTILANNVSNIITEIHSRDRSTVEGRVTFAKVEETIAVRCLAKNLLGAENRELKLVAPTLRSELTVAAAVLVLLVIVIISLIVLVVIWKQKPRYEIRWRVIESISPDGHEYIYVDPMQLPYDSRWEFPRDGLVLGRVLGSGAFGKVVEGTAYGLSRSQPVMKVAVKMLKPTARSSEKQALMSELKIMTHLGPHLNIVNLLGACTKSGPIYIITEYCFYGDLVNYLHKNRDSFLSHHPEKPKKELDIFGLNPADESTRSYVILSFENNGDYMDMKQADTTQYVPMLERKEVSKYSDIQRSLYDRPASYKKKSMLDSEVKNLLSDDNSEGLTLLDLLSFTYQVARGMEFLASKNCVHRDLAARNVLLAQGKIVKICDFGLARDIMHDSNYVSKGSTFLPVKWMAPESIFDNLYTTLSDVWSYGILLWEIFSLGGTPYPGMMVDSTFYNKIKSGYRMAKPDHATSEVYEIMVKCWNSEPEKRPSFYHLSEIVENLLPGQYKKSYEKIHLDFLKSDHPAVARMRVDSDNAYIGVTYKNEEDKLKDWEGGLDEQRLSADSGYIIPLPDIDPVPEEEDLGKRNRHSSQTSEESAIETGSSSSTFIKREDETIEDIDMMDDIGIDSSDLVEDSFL

[5] = system: Panel melanoma (Carcinoma cell lines); experiment: cells; assay type: functional; conditions: Homo sapiens, time 48 hrs
Description: Growth inhibition of human Panel melanoma (Carcinoma cell lines) incubated for 48 hrs by sulforhodamine B assay

OVCAR-3 = experiment: cells; assay type: functional; conditions: Homo sapiens, time 48 hrs
Description: Growth inhibition of human OVCAR-3 cells incubated for 48 hrs by sulforhodamine B assay

TK-10 = experiment: cells; assay type: functional; conditions: Homo sapiens, time 48 hrs
Description: Growth inhibition of human TK-10 cells incubated for 48 hrs by sulforhodamine B assay

[6] = biological target: Serine/threonine-protein kinase 3 (Homo sapiens) (UniProt Q13188); experiment: Inhibition of recombinant N-terminal His6-tagged human MST2 (2 to end residues) expressed in baculovirus infected Sf21 insect cells at 10 uM relative to control
[7] = biological target: Fibroblast growth factor receptor 1 (Homo sapiens) (UniProt P11362); experiment: Inhibition of human FGFR1 assessed as residual activity at 10 uM relative to control
[8] = system: PI3-kinase p110-alpha/p85-alpha (Homo sapiens), P27986+P42336 [H1047R]; experiment: Inhibition of p110alpha/p85alpha H1047R mutant (unknown origin) at 10 uM relative to control; assay type: protein-complex assay
UACC-257 = experiment: cells; assay type: functional; conditions: Homo sapiens, time 48 hrs
Description: Growth inhibition of human UACC-257 cells incubated for 48 hrs by sulforhodamine B assay

[9] = biological target: Hepatocyte growth factor receptor (Homo sapiens) (UniProt P08581); experiment: Inhibition of recombinant N-terminal His6-tagged human MET (974 to end residues) expressed in baculovirus infected Sf21 insect cells at 10 uM relative to control
Hepatocyte growth factor receptor (Homo sapiens), sequence (P08581 whole entry): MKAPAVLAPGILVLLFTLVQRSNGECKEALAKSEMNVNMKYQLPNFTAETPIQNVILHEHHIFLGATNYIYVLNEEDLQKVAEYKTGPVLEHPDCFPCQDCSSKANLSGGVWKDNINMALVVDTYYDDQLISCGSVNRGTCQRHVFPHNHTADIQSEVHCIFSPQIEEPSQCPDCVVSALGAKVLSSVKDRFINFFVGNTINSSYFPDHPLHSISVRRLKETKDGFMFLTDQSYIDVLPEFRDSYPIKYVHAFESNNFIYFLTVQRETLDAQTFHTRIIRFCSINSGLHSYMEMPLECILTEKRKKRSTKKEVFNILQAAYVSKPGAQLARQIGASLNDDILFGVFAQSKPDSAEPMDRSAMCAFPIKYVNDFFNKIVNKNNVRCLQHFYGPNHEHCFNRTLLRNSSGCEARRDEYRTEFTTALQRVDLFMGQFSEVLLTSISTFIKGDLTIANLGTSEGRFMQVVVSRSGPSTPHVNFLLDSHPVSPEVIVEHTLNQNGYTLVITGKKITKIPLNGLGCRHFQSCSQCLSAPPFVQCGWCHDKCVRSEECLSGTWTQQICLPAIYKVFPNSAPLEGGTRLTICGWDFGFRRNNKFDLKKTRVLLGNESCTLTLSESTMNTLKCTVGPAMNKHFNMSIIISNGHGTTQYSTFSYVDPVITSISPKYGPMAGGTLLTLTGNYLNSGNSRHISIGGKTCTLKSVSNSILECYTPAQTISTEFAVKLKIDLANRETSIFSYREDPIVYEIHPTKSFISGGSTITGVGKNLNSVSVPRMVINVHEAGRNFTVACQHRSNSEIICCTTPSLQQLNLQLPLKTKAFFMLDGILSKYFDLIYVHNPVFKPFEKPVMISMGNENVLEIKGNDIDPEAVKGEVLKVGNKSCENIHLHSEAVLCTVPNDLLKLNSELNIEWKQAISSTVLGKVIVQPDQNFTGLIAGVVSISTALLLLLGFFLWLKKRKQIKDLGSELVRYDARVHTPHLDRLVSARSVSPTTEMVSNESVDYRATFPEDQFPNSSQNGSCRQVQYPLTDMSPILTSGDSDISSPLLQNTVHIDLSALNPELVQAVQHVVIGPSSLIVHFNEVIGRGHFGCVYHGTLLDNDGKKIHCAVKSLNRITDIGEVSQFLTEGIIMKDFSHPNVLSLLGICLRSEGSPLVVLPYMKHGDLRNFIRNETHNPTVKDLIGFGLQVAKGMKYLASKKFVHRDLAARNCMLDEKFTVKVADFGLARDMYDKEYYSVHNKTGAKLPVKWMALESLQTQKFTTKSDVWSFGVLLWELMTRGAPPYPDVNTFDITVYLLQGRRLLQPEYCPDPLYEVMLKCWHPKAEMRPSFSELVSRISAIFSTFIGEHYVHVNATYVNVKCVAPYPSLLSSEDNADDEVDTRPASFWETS

[10] = biological target: Mitogen-activated protein kinase 8 (Homo sapiens) (UniProt P45983); experiment: Inhibition of N-terminal His-tagged recombinant full length human JNK1alpha1 expressed in Sf21 cells at 10 uM relative to control
[11] = biological target: Epidermal growth factor receptor (Homo sapiens) (UniProt P00533); experiment: Inhibition of N-terminal GST-tagged human EGFR (696 to end residues) expressed in baculovirus-infected Sf21 cells assessed as residual activity at 10 uM relative to control
[12] = system: Panel CNS (Carcinoma cell lines); experiment: cells; assay type: functional; conditions: Homo sapiens, time 48 hrs
Description: Growth inhibition of human Panel CNS (Carcinoma cell lines) incubated for 48 hrs by sulforhodamine B assay

[13] = system: Tyrosine-protein kinase ABL1 (Homo sapiens), P00519 [T315I]; experiment: Inhibition of recombinant N-terminal His6-tagged human ABL T315I mutant (27 to end residues) expressed in baculovirus infected Sf21 insect cells assessed as residual activity at 10 uM relative to control
A498 = experiment: cells; assay type: functional; conditions: Homo sapiens, time 48 hrs
Description: Growth inhibition of human A498 cells incubated for 48 hrs by sulforhodamine B assay

MDA-MB-468 = experiment: cells; assay type: functional; conditions: Homo sapiens, time 48 hrs
Description: Growth inhibition of human MDA-MB-468 cells incubated for 48 hrs by sulforhodamine B assay

[14] = biological target: Mitogen-activated protein kinase 1 (Homo sapiens) (UniProt P28482); experiment: Inhibition of recombinant full length N-terminal GST-tagged human MAPK2 expressed in Escherichia coli at 10 uM relative to control
Mitogen-activated protein kinase 1 (Homo sapiens), sequence (P28482 whole entry): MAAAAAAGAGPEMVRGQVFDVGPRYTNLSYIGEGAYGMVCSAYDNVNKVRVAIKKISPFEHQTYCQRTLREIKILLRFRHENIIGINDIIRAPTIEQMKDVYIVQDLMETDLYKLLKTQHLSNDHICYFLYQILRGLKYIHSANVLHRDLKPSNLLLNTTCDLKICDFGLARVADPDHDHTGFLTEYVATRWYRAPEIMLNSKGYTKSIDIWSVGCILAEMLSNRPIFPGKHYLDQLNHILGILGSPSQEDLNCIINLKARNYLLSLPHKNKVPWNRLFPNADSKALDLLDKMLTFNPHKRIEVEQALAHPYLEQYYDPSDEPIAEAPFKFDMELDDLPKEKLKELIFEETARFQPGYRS

[15] = biological target: High affinity nerve growth factor receptor (Homo sapiens, UniProt P04629); experiment: Inhibition of recombinant N-terminal His6-tagged human TrkA (440 to end residues) expressed in baculovirus infected Sf21 insect cells
High affinity nerve growth factor receptor, sequence (P04629 whole entry): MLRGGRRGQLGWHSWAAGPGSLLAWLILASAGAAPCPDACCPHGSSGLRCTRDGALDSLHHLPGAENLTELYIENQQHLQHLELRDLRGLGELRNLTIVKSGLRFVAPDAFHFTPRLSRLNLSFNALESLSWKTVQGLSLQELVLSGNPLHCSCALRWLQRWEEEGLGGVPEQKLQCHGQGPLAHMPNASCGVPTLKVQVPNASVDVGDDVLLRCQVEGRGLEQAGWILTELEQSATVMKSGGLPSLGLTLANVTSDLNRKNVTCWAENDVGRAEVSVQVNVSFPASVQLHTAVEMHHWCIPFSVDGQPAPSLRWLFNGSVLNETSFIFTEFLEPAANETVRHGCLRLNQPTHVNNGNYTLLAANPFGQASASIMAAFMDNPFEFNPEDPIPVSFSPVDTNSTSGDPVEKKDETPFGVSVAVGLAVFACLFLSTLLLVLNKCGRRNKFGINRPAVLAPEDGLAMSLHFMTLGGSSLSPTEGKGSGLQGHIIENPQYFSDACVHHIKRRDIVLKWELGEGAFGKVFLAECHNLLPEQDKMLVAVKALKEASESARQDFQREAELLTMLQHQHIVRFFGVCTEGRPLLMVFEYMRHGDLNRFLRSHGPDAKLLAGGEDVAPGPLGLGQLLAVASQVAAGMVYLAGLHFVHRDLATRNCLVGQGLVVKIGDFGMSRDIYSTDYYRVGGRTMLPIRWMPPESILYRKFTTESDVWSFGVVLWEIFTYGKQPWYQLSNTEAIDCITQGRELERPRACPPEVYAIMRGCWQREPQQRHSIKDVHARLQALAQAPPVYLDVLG

[16] = biological target: PI3-kinase p110-alpha/p85-alpha (Homo sapiens) (UniProt P27986+P42336); experiment: Inhibition of p110 alpha/p85 alpha (unknown origin) at 10 uM relative to control; assay type: protein-complex assay
[17] = biological target: Macrophage colony-stimulating factor 1 receptor (Homo sapiens) (UniProt P07333); experiment: Inhibition of recombinant N-terminal His6-tagged human FMS (538 to end residues) expressed in baculovirus infected Sf21 insect cells assessed as residual activity at 10 uM relative to control
HOP-62 = experiment: cells; assay type: functional; conditions: Homo sapiens, time 48 hrs
Description: Growth inhibition of human HOP-62 cells incubated for 48 hrs by sulforhodamine B assay

[18] = Cytotoxicity against human HFF-1 cells assessed as cell growth inhibition at 10 uM by MTT assay relative to control; assay type: cell-based; conditions: read-out: GI
[19] = biological target: Angiopoietin-1 receptor (Homo sapiens) (UniProt Q02763); experiment: Inhibition of recombinant N-terminal His6-tagged human Tie2 (771 to end residues) expressed in baculovirus infected Sf21 insect cells at 10 uM relative to control
SF-295 = experiment: cells; assay type: functional; conditions: Homo sapiens, time 48 hrs
Description: Growth inhibition of human SF-295 cells incubated for 48 hrs by sulforhodamine B assay

K562 = experiment: cells; assay type: functional; conditions: Homo sapiens, time 48 hrs
Description: Growth inhibition of human K562 cells incubated for 48 hrs by sulforhodamine B assay

[20] = biological target: Insulin-like growth factor 1 receptor (Homo sapiens) (UniProt P08069); experiment: Inhibition of human IGF1R assessed as residual activity at 10 uM relative to control
[21] = biological target: Tyrosine-protein kinase ABL1 (Homo sapiens) (UniProt P00519); experiment: Inhibition of recombinant N-terminal His6-tagged human ABL (27 to end residues) expressed in baculovirus infected Sf21 insect cells assessed as residual activity at 10 uM relative to control
[22] = Cytotoxicity against human HFF-1 cells assessed as cell growth inhibition at 0.1 uM by MTT assay relative to control; assay type: cell-based; conditions: read-out: GI
[23] = biological target: Tyrosine-protein kinase BTK (Homo sapiens) (UniProt Q06187); experiment: Inhibition of recombinant full length N-terminal His6-tagged human BTK expressed in baculovirus infected Sf21 cells assessed as residual activity at 10 uM relative to control
[24] = system: Panel prostate (Carcinoma cell lines); experiment: cells; assay type: functional; conditions: Homo sapiens, time 48 hrs
Description: Growth inhibition of human Panel prostate (Carcinoma cell lines) incubated for 48 hrs by sulforhodamine B assay

[25] = Cytotoxicity against human HFF-1 cells assessed as cell growth inhibition at 1 uM by MTT assay relative to control; assay type: cell-based; conditions: read-out: GI
LOX IMVI [26] = experiment: Growth inhibition of human LOX IMVI cells assessed as growth percentage at 10 uM measured after 48 hrs by sulforhodamine B assay relative to control; assay type: functional; conditions: read-out: Activity
[27] = system: Panel breast (Carcinoma cell lines); experiment: cells; assay type: functional; conditions: Homo sapiens, time 48 hrs
Description: Growth inhibition of human Panel breast (Carcinoma cell lines) incubated for 48 hrs by sulforhodamine B assay

[28] = read-out: LC50 (the source's name)

## CN1CCN(CCCOc2cccc3nc(Nc4ccc(Cl)c(C(F)(F)F)c4)ccc23)CC1
HT-29
  GI50: 1120 nM
[1]
  inhibition: < 60%
[2]
  inhibition: < 60%
MCF7
  GI50: 1410 nM
LOX IMVI [3]
  GI50: 1560 nM
MDA-MB-231
  GI50: 1470 nM
CCRF-CEM
  GI50: 1210 nM
[4]
  inhibition: < 60%
[5]
  GI50: 1710 nM
  LC50: 6700 nM
  TGI: 3380 nM
OVCAR-3
  GI50: 1810 nM
TK-10
  GI50: 1800 nM
[6]
  inhibition: < 60%
[7]
  Activity: < 60%
[8]
  inhibition: < 60%
UACC-257
  GI50: 1720 nM
[9]
  inhibition: < 60%
[10]
  inhibition: < 60%
[11]
  Activity: < 60%
[12]
  GI50: 1650 nM
  TGI: 3670 nM
[12]; [28]
  CC50: 6980 nM
[13]
  Activity: < 60%
A498
  GI50: 1680 nM
MDA-MB-468
  GI50: 1600 nM
[14]
  inhibition: < 60%
[15]
  IC50: 2520 nM
[16]
  inhibition: < 60%
[17]
  Activity: < 60%
HOP-62
  GI50: 1700 nM
[18]
  inhibition at 10 µM: 37.1%
[19]
  inhibition: < 60%
SF-295
  GI50: 1800 nM
K562
  GI50: 1620 nM
[20]
  Activity: < 60%
[21]
  Activity: < 60%
[22]
  inhibition at 0.1 µM: 6.07%
[23]
  Activity: < 60%
[24]
  GI50: 1690 nM
  LC50 (concentration killing 50% of cells): 5880 nM
  TGI: 3150 nM
[25]
  inhibition at 1 µM: 12.7%
LOX IMVI [26]
  growth at 10 µM: -5.77%
[27]
  GI50: 1690 nM
  TGI: 3630 nM
[27]; [28]
  CC50: 11200 nM
